In the test the target is T1, Full length human TNNI3K (hTNNI3K) (Homo sapiens, UniProt Q59H18).
T1 construct: His-MBP-TEV-Full length human TNNI3K (hTNNI3K); His (N); MBP (N); TEV cleavage site (N); made in house; host or cells: baculovirus expression system (printed 'Baculokinase system')
T1 sequence (Q59H18 1-835): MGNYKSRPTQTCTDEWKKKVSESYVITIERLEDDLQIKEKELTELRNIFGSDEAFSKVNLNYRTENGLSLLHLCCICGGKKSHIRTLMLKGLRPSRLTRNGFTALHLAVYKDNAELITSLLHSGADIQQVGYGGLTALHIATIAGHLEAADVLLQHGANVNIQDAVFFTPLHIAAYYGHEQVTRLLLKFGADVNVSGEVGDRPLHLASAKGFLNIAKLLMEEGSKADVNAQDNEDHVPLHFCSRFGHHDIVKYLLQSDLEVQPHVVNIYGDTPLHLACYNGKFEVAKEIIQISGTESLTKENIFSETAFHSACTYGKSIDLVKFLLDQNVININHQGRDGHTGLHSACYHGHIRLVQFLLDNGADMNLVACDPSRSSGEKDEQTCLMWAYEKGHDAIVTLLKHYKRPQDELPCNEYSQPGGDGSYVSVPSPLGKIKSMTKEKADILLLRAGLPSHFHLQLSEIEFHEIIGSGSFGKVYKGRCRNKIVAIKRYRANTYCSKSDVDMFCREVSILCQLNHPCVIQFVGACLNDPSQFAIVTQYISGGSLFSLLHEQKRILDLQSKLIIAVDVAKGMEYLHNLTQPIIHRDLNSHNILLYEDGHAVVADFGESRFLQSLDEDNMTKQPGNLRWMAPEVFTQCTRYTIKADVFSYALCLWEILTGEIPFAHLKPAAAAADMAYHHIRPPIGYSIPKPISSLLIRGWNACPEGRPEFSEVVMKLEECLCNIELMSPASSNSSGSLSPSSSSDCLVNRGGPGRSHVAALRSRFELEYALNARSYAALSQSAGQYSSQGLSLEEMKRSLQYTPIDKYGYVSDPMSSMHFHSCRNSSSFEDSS
The test is described as follows: Fluorescent polarization assay of compound inhibition on hTNNI3K ATP binding (Biological Assay Method I). An excerpt: Materials: His-MBP-TEV-Full length human TNNI3K (hTNNI3K) was expressed in Baculokinase system and purified from amylase affinity column followed by Superdex200. […] The preparation of this fluorescent ligand is disclosed in U.S. Provisional Patent Application No. 61/237,815 filed Aug. 28, 2009, the disclosure of which is incorporated by reference herein. The other buffer components, including MgCl2 (Catalog Number M1028), Bis-Tris (Catalog Number B7535), DTT (Catalog Number D9779) and Chaps (Catalog Number C3023) were purchased from Sigma-Aldrich.
A fluorescent polarization assay was used to determine does response of compound inhibition on hTNNI3K ATP binding. […]
Fifty (50) nL of inhibitors in DMSO (or DMSO controls) were stamped into a 384-well low volume Greiner black plate, followed by addition of 5 μL of Solution 1 to column 18 and 5 μL Solution 2 to columns 1-17 and 19-24 of the plate. […] After that, the fluorescent polarization was measured on Analyst (ex/em: 485/530 nm, Dichroic: 505). […]

Structures can show the parent of a compound that is named as a salt. Where two headings read alike, the source gives them in different places.

For `CNS(=O)(=O)c1cccc(Nc2cc(Nc3nc(C)co3)ncn2)c1` [Example 284, N-methyl-3-({6-[(4-methyl-1,3-oxazol-2-yl)amino]-4-pyrimidinyl}amino)benzenesulfonamide], the IC50 (mean of a minimum of 2 experiments, displacement of fluorescent ligand from hTNNI3K ATP binding pocket, 60 min at rt, read-out: pXC50 (the source's name) (converted)) was about 100 nM.

Turning to `CNS(=O)(=O)c1cccc(Nc2cc(Nc3ccccc3)ncn2)c1` [Example 55, N-methyl-3-{[6-(phenylamino)-4-pyrimidinyl]amino}benzenesulfonamide trifluoroacetate], the IC50 is about 100 nM.

The values are drawn from patent publication US20120329784A1, “COMPOUNDS AND METHODS” (priority 2010, published 2012).
